Source: US20110105397A1, “METHOD FOR TREATING HEART FAILURE WITH STRESSCOPIN-LIKE PEPTIDES” (priority 2009, published 2011)
Where no end group is shown, it is not given here.

T1: human CRHR2 (Homo sapiens, UniProt Q13324)
T1 construct: expressed in transfected cells
T1 sequence (Q13324 1-411): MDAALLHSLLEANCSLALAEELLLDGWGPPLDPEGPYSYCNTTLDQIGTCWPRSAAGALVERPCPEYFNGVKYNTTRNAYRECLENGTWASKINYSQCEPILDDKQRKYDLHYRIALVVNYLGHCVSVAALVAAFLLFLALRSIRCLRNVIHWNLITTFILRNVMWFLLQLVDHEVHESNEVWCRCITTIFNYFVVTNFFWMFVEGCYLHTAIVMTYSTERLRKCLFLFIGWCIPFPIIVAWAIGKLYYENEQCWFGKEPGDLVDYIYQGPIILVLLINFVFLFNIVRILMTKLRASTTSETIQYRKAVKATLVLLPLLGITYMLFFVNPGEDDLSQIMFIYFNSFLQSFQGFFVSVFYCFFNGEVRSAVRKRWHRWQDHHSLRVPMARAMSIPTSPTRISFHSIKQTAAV

T2: CRHR1 (Homo sapiens, UniProt P34998)
T2 sequence (P34998 24-415): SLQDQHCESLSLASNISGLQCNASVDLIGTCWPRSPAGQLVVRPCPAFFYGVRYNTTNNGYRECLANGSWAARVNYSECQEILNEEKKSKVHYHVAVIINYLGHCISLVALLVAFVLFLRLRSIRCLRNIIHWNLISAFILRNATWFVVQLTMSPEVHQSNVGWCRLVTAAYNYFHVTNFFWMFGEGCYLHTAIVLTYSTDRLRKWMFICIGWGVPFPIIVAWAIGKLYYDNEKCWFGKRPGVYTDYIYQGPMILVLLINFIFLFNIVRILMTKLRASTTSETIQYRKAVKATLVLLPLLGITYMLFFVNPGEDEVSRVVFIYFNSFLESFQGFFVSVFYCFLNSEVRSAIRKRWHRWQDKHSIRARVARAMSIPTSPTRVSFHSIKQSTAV

T3: human corticotrophin releasing hormone receptor type 2 (CRHR2) (human) (UniProt Q13324)
T3 sequence (looked up): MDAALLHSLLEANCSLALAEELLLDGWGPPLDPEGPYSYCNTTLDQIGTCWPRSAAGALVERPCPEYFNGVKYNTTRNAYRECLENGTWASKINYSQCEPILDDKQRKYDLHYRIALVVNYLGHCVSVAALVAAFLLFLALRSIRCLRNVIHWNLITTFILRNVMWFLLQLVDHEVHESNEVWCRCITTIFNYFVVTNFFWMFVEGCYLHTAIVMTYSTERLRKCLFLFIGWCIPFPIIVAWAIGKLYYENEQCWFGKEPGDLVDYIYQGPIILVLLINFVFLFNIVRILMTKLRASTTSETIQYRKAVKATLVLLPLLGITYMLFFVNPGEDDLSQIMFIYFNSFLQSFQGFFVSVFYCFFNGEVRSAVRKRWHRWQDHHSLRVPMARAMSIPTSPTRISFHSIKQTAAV

T4: human corticotrophin releasing hormone receptor type 1 (CRHR1) (human, UniProt P34998 24-415)
T4 sequence (looked up): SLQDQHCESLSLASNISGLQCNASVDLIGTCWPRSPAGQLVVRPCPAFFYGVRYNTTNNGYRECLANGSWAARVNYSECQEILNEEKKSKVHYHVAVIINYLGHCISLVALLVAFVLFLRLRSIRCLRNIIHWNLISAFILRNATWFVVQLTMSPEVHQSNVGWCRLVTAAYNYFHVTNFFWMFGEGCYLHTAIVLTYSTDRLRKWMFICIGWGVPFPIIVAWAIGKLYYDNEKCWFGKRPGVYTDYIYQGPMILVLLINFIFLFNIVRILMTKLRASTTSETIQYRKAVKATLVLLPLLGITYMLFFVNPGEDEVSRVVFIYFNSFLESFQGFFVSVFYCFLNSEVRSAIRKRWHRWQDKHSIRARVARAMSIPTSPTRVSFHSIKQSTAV


What was measured:
human CRHR2 = target: T1, human CRHR2; assay: CRHR2 radioligand binding, [125I]-anti-sauvagine-30, SK-N-MC membranes; conditions: CRHR2
Protocol: The binding profile of h-SCP (SEQ ID NO:1) at CRHR2 was determined in radioligand binding studies in a membrane preparation of SK-N-MC cells stably transfected with human CRHR2 using [^125I]-anti-sauvagine-30 as the radiolabel. […] The solution was then homogenized with a Polytron tissue grinder at a setting of 10 and 7×3 s (Brinkmann Instruments, Westbury, N.Y.). […] The supernatant was re-centrifuged at 26,892×g for 25 min at 4° Celsius with the final pellet being re-suspended in assay buffer. […] For competition studies, cell membranes of […] volume were incubated with either 60 pM [^125I]-anti-sauvagine-30 in 50 μl volume for the CRHR2 assay or with)[^125I]-([…]-sauvagine for the CRHR1 assay in the presence of 15 μl of competing ligand for 120 min having a total volume of 150 μl. […] The bound radioactivity was separated by filtration using a Multiscreen Resist manifold (Millipore Corp., Billerica, Mass., U.S.A). The filters were washed three times with ice-cold PBS at pH 7.5 and radioactivity retained on the filters was quantified by its liquid scintillation measured by a TopCount counter (Packard BioScience, Boston, Mass., U.S.A). All experiments were performed in triplicate. Data from individual competition curves were expressed as the percentage of specific [^125I]-anti-sauvagine-30 or)[^125I]-([…]-sauvagine binding (B) within each experiment. […] The competition curve obtained with h-SCP (SEQ ID NO:1) was biphasic.

[1] = tested on: anaesthetized male Sprague-Dawley rats; assay: Hemodynamics in anaesthetized rats (IV bolus); format: in vivo, rat; conditions: healthy anaesthetized rats
Protocol: The hemodynamic profile of h-SCP (SEQ ID NO:1) was determined in sodium pentobarbital anaesthetized male Sprague-Dawley rats (FIG. 10). A SPR-320 Mikro-Tip® integrated catheter-tipped micro-manometer (Millar Instruments, Houston, Tex., U.S.A.) was placed in the right femoral artery for blood pressure measurements, and another one directly in the left ventricle for LV pressure measurement. […] The changes in hemodynamic parameters induced by h-SCP (SEQ ID NO:1, full circle in FIG. 10) were blocked by pretreatment with anti-sauvagine-30 (SEQ ID NO:118, open circle in FIG. 10).

[2] = tested on: dogs with advanced heart failure; assay: Hemodynamic, angiographic, echocardiographic profile in anaesthetized dogs with advanced heart failure, IV infusion; format: in vivo, dog
Protocol: The effects of h-SCP (SEQ ID NO:1) on cardiovascular function were also assessed in anaesthetized dogs with advanced, irreversible heart failure of ischemic etiology (Sabbah et al., 1991, Am. J. Physiol., vol. 260, pp. H1379-H1384; Sabbah et al., 1994, Circulation, vol. 98, pp. 2852-2859; Chandler et al., 2002, Circ. Res., vol. 91, pp. 278-280). Progressive, advanced heart failure was produced in mongrel dogs by multiple sequential intracoronary microembolization with polystyrene latex microspheres. Dose infusions of 2.2, 4.3, and 7.3 ng/kg/min were administered intravenously over 60 minutes just following or just prior to hemodynamic, angiographic, echocardiographic, and Doppler measurements using conventional hemodynamic, angiographic, echocardiographic, and radiographic methods. The h-SCP polypeptide (SEQ ID NO:1) produced dose- (infusion-) dependent increases in LVEF and SV and decreases in left ventricular end diastolic pressure (LVEDP), left ventricular pressure during isovolumic relaxation (LV-dP/dt), systemic vascular resistance (SVR), and left ventricular end-systolic volume (LVESV) that correlated with plasma concentration. No significant change in heart rate, peak systolic aortic blood pressure, LV+dP/dt, mean pulmonary artery pressure, mean pulmonary artery wedge pressure, right atrial pressure, or myocardial oxygen consumption were recorded following any of the 1 hour intravenous infusions (Table 18 and FIGS. 12 A & B). The improvement in LV systolic and diastolic function was not associated with the development of de novo ventricular arrhythmias.
In order to determine the threshold effective dose-infusion in dogs with advanced heart failure, a further study was performed at lower dose infusions. In addition, the opportunity was taken to explore whether the increase in LVEF produced by higher dose-infusions of 4.3 ng/kg/min would remain stable over a longer infusion period, i.e. 120 minutes.
In order to understand the potential cardiovascular effects of neutralizing antibody formation to h-SCP (SEQ ID NO:1), SV30 (SEQ ID No. 118), a competitive antagonist of CRHR2, was administered to dogs (N=4) with advanced heart failure. […] These experiments with SV30 indicate that baseline cardiovascular parameters in dogs with advanced heart failure were not dependent upon endogenous hormone stimulation of CRHR2. Similar findings have been reported in healthy conscious and anaesthetized rats (Gardiner et al., J. Pharmacol. Exp. Ther., 2007, vol 321, pp. 221-226).

CRHR1 = target: T2, CRHR1; assay: CRHR1 radioligand binding, [125I]-(Tyr0)-sauvagine; parameters: host or cells: cell membranes
Source text: The solution was then homogenized with a Polytron tissue grinder at a setting of 10 and 7×3 s (Brinkmann Instruments, Westbury, N.Y.). […] The bound radioactivity was separated by filtration using a Multiscreen Resist manifold (Millipore Corp., Billerica, Mass., U.S.A). The filters were washed three times with ice-cold PBS at pH 7.5 and radioactivity retained on the filters was quantified by its liquid scintillation measured by a TopCount counter (Packard BioScience, Boston, Mass., U.S.A). All experiments were performed in triplicate.

[3] = target: T3, human corticotrophin releasing hormone receptor type 2 (CRHR2) (human); assay: cell-based or functional assay
[4] = target: T4, human corticotrophin releasing hormone …; assay: cell-based or functional assay
[5] = target: T3, human corticotrophin releasing hormone receptor type 2 (CRHR2) (human); assay: radioligand competition against [125I]-anti-sauvagine-30, membranes of SK-N-MC cells with human CRHR2
[6] = target: T3, human corticotrophin releasing hormone receptor type 2 (CRHR2) (human); assay: cell-based or functional assay; remark: listed apart in the source
[7] = target: T4, human corticotrophin releasing hormone …; assay: radioligand competition against [125I]-(Tyr0)-sauvagine, CRHR1 assay, cell membranes
Protocol: Frozen cell pellets were defrosted on ice in 15 ml of assay buffer that was composed of 10 mM HEPES, 130 mM NaCl, 4.7 mM KCl, 5 mM MgCl₂, and 0.089 mM bacitracin at pH 7.2 and 21±3° Celsius. The solution was then homogenized with a Polytron tissue grinder at a setting of 10 and 7×3 s (Brinkmann Instruments, Westbury, N.Y.). The homogenate was centrifuged at 4° Celsius at 800×g for 5 min with the pellet being discarded. The supernatant was re-centrifuged at 26,892×g for 25 min at 4° Celsius with the final pellet being re-suspended in assay buffer. All binding assays were conducted in 96-well Multiscreen GF/B filter plates (Millipore, Billericay, Mass., U.S.A.) that were pre-soaked in assay buffer with 0.3% PEI for 1 hour. […]
The bound radioactivity was separated by filtration using a Multiscreen Resist manifold (Millipore Corp., Billerica, Mass., U.S.A). The filters were washed three times with ice-cold PBS at pH 7.5 and radioactivity retained on the filters was quantified by its liquid scintillation measured by a TopCount counter (Packard BioScience, Boston, Mass., U.S.A). […]
Data from individual competition curves were expressed as the percentage of specific [¹²⁵I]-anti-sauvagine-30 or)[¹²⁵I]-(Tyr⁰-sauvagine binding (B) within each experiment.

Molecule | nH (human CRHR2) | effect on baseline hemodynamic parameters [1] | effect on cardiovascular parameters ([2]; CRHR2 blocking doses in dogs with advanced heart failure (N=4)) | CO ([2]; Table 20, AS-30 alone) | HR ([2]; Table 20, AS-30 alone) | LV+dP/dt ([2]; Table 20, AS-30 alone) | LVEDP ([2]; Table 20, AS-30 alone) | LVEDV ([2]; Table 20, AS-30 alone) | LVEF ([2]; Table 20, AS-30 alone) | LVESV ([2]; Table 20, AS-30 alone) | MPAP ([2]; Table 20, AS-30 alone) | PSAP ([2]; Table 20, AS-30 alone) | SV ([2]; Table 20, AS-30 alone) | nH (CRHR1) | pA50 [3] | pA50 [4] | pKI [5] | pA2 (antagonism of the cAMP response to h-SCP) [6] | pKI [7]
CC[C@H](C)[C@H](NC(=O)[C@@H](NC(=O)[C@H](CC(=O)O)NC(=O)[C@H](CC(C)C)NC(=O)[C@H](CC(C)C)NC(=O)[C@H](CC(C)C)NC(=O)[C@H](CCCNC(=N)N)NC(=O)[C@H](CC(N)=O)NC(=O)[C@H](CC(N)=O)NC(=O)[C@H](C)NC(=O)[C@H](C)NC(=O)[C@H](CCC(N)=O)NC(=O)[C@H](CCC(N)=O)NC(=O)[C@H](CCCCN)NC(=O)[C@H](CCC(=O)O)NC(=O)[C@H](CCCCN)NC(=O)[C@H](CCC(=O)O)NC(=O)[C@H](CCC(N)=O)NC(=O)[C@H](CCCCN)NC(=O)[C@H](CCC(=O)O)NC(=O)[C@@H](NC(=O)[C@H](CCC(=O)O)NC(=O)[C@@H](NC(=O)[C@H](CCSC)NC(=O)[C@H](CCCCN)NC(=O)[C@H](CCCNC(=N)N)NC(=O)[C@H](CC(C)C)NC(=O)[C@H](CC(C)C)NC(=O)[C@H](Cc1c[nH]cn1)NC(=O)C(N)Cc1ccccc1)[C@@H](C)CC)[C@@H](C)CC)[C@@H](C)O)C(N)=O (some centres unmarked) [SEQ ID NO: 118, FHLLRKMIEIEKQEKEKQQAANNRLLLDTI-NH2, reference compound] | 1.15 ± 0.12 | did not inhibit baseline parameters | without effect on cardiovascular parameters | 1.44 ± 0.04 L/min | 79 ± 3 beats/min | 1675 ± 109 mmHg/sec | 15 ± 1 mmHg | 68 ± 2.7 mL | 27 ± 0% | 50 ± 1.9 mL | 16 ± 0.7 mmHg | 94 ± 5 mmHg | 18 ± 0.8 mL | 1.00 ± 0.49 | – | – | – | – | –
DDPPLSIDLTFHLLRTLLELARTQSQRERAEQNRIIFDSV-NH2 [r-UCN1] | – | – | – | – | – | – | – | – | – | – | – | – | – | – | 9.08 -log10(M) | 9.19 -log10(M) | 8.51 -log10(M) | – | –
FHLLRKMIEIEKQEKEKQQAANNRLLLDTI-NH2 (also called SV30; AS-30) [anti-sauvagine-30] | – | – | – | – | – | – | – | – | – | – | – | – | – | – | – | – | 7.78 -log10(M) | 7.82 -log10(M) | 5.81 -log10(M)
